# Measured values taken from patent US20050170989A1, “Fluorine-containing water-soluble nonionic surface-active compounds, use thereof and process for preparation of the compounds” (DAIKIN INDUSTRIES, LTD., priority 2002, published 2005).
# Key:
# Type in all cases: physicochemical
# [1] = Water solubility evaluation, observed with the naked eye; details: 25° C.; for Water Solubility 1%: 1 wt. % aqueous mixture; for Water Solubility 5%: 5 wt. % aqueous mixture; for Water Solubility 50%: 50 wt. % aqueous mixture
# Protocol: For the evaluation of water solubility, a uniform liquid was used that was obtained by heating each compound at about 60° C. 5g aqueous mixtures were prepared at predetermined concentrations (1 wt. %, 5 wt. % and 50 wt. %) in capped sample bottles.
# [2] = Static surface tension by the Wilhelmy method (plate method); details: 0.1 wt. % aqueous solution, left 1 day, 25° C.
# Protocol: For the measurement of surface tension, a uniform liquid was used that was obtained by heating each compound at about 60° C. The compounds were each dissolved in water to prepare 10 g of 0.1 wt. % aqueous solutions. After the aqueous solutions were left to stand for 1 day, the static surface tension thereof was measured at 25° C. according to the Wilhelmy method (plate method). The measurement instrument used was a “SURFACE TENSIOMETER CBVP-A3” (product of Kyowa Interface Science Co., Ltd.).
# [3] = Dynamic surface tension by the maximum bubble pressure method; details: 0.5 wt. % aqueous solution, 25° C., at 100 milliseconds
# Protocol: For the measurement of dynamic surface tension, each compound was dissolved in water, heated if necessary, to prepare 80 g of 0.5 wt. % aqueous solutions. The dynamic surface tension thereof was measured at 25° C. according to the maximum bubble pressure method. The obtained value was that measured at 100 milliseconds. The measurement instrument used was a “KRUSS BUBBLE PRESSURE TENSIOMETER-BP2”.
Substance,Water Solubility 1% [1],Water Solubility 5% [1],Water Solubility 50% [1],Static Surface Tension 0.10% [2] [mN/m],Dynamic Surface Tension 0.50% [3] [mN/m]
C4F9—CH2CH(OH)CH2O—(CH2CH2O)21—C12H25 [Example 5],Dissolved,Dissolved,Dissolved,21.9,30
C4F9—CH2CH(OH)CH2O—(CH2CH2O)25—C16H33 [Example 2],Dissolved,Dissolved,Dissolved,23.8,34
"C18H33COO—(CH2CH2O)23—COC18H33 [Comparative Example 9, reference compound]",Dissolved,Dissolved,Uniform gel,34.8,61
C4F9—CH2CH(OH)CH2O—(CH2CH2O)23—CH2CH(OH)CH2—C4F9 [Example 7],Dissolved,Dissolved,Dissolved,18.4,32
C4F9—CH2CH(OH)CH2O—(CH2CH2O)45—CH2CH(OH)CH2—C4F9 [Example 9],Dissolved,Dissolved,Dissolved,19.1,34
C4F9—CH2CH(OH)CH2O—(CH2CH2O)20—C18H37 [Example 4],Dissolved,Dissolved,Uniform gel,24.1,36
C4F9—CH2CH(OH)CH2O—(CH2CH2O)23—C16H33 [Example 1],Dissolved,Dissolved,Dissolved,24.2,34
"C16H33O—(CH2CH2O)15—H [Comparative Example 8, reference compound]",Dissolved,Suspended,Solid,37.5,59
C4F9—CH2CH(OH)CH2O—(CH2CH2O)35—CH2CH(OH)CH2—C4F9 [Example 8],Dissolved,Dissolved,Dissolved,18.6,32
C4F9—CH2CH(OH)CH2O—(CH2CH2O)25—C12H25 [Example 6],Dissolved,Dissolved,Dissolved,23.1,35
C4F9—CH2CH(OH)CH2O—(CH2CH2O)40—C16H33 [Example 3],Dissolved,Dissolved,Dissolved,30.5,45
